Data: US8299056B2 (Signal Pharmaceuticals, LLC, priority 2008, dated 2012)
Read-outs that look alike come from different tables or passages of the source.

Target: T1, Syk (Homo sapiens, UniProt P43405)
T1 construct: purchased Carna Biosciences
Assay: Syk HTRF assay
Assay type: biochemical
Protocol: Test compounds were prepared at a concentration of 1.5 mM in DMSO followed by 3-fold dilutions in Greiner […] polypropylene plates. A 1:4 dilution of compounds by 8 μL/well transfer from the polypropylene plates to 24 μL/well Assay Buffer in Costar 3710 384 well black plates was then performed. Kinases (13 μL/well) or Assay Buffer only (background controls; 50 mM HEPES pH 7.6, 1 mM DTT, 10 mM MgCl2, 0.01% Triton X100, 0.01% BSA and 0.1 mM EDTA) were added to Costar 3710 384-well black plates for the HTRF assays (Carna Biosciences) and compound was added from the 1:4 dilution plate. Syk start mix (87.5 μM ATP, 80 nM Substrate Peptide (American Peptide Company 332722) was added and the mixture was incubated at room temperature for 1 hour. Syk Stop Solution (120 mM EDTA in dilution buffer) was then added to the Syk HTRF assay plate and incubated at room temperature on a shaker for 2 minutes. Syk Antibody Mix (4.86 μg/mL DyLight 647 Streptavidin (Pierce 21824); 1 μg/mL Lance Eu-Anti-Phosphotyrosine (PerkinElmer AD0069)) was added to the Syk HTRF assay plate and the mixture was further incubated at room temperature for >4 h. Time resolved fluorescence was read in assay plates on a PerkinElmer EnVision. HTRF assays were performed using 320 nm excitation, 60 μs delay, 665 nm and 615 nm emission. Data was expressed by division of 665 nm by 615 nm emissions.

[1] = read-out: Activity Level (Syk HTRF assay IC50)
[2] = IC50 activity level, read-out: Activity Level
[3] = activity levels A-D, read-out: Activity Level (IC50 in the Syk HTRF assay)

| SMILES | IC50 [1] | IC50 [3] | also measured |
| --- | --- | --- | --- |
| NCc1ccc(Nc2nc3cccc(-c4cccc(O)c4)n3n2)cc1 [compound 24, 3-(2-(4-(aminomethyl)phenylamino)-[1,2,4]triazolo[1,5-a]pyridin-5-yl)phenol] | 250 to 500 nM |  |  |
| CN(c1ccccc1)c1cccc2nc(Nc3ccccc3)nn12 [Example 472, N^5-methyl-N^2,N^5-diphenyl-[1,2,4]triazolo[1,5-a]pyridin-2,5-diamine] |  |  | IC50 [2]: 1000 to 10000 nM |
| O=C1CN(Cc2cccc3nc(Nc4ccc(C(F)(F)F)cc4)nn23)C(=O)N1 [Example 252, 1-((2-(4-(trifluoromethyl)phenylamino)-[1,2,4]triazolo[1,5-a]pyridin-5-yl)methyl)imidazolidine-2,4-dione] |  | 1000 to 10000 nM |  |
| O[C@H]1CC[C@@H](Nc2cccc3nc(Nc4ccc(C(F)(F)F)cc4)nn23)CC1 [Example 453, cis-4-(2-(4-(trifluoromethyl)phenylamino)-[1,2,4]triazolo[1,5-a]pyridin-5-ylamino)cyclohexanol] |  |  | IC50 [2]: 0.005 to 250 nM |
| NC(=O)[C@H]1CC[C@H](Oc2cccc3nc(Nc4ccc(C(F)(F)F)cc4)nn23)CC1 (stereo in doubt) [Example 405, trans-4-(2-(4-(trifluoromethyl)phenylamino)-[1,2,4]triazolo[1,5-a]pyridin-5-yloxy)cyclohexanecarboxamide] |  |  | IC50 [2]: 1000 to 10000 nM |
| Cc1n[nH]c2cc(Nc3nc4cccc(N[C@H]5CC[C@H](O)CC5)n4n3)ccc12 (stereo in doubt) [Example 201, trans-4-(2-(3-methyl-1H-indazol-6-ylamino)-[1,2,4]triazolo[1,5-a]pyridin-5-ylamino)cyclohexanol] |  | 0.005 to 250 nM |  |
| OC1CN(c2cccc3nc(Nc4ccc(C(F)(F)F)cc4)nn23)C1 [Example 287, 1-(2-(4-(trifluoromethyl)phenylamino)-[1,2,4]triazolo[1,5-a]pyridin-5-yl)azetidin-3-ol] |  | 0.005 to 250 nM |  |
| COCc1nc2ccc(Nc3nc4cccc(Cc5ccnc(O)c5)n4n3)cc2[nH]1 [compound 130] | 0.005 to 250 nM |  |  |
| c1ccc(Nc2nc3cccc(CC4CCNCC4)n3n2)cc1 [Example 482, N-phenyl-5-(piperidin-4-ylmethyl)-[1,2,4]triazolo[1,5-a]pyridin-2-amine] |  |  | IC50 [2]: 0.005 to 250 nM |
| CCn1nc(C)c2ccc(Nc3nc4cccc(N[C@H]5CC[C@@H](O)CC5)n4n3)cc21 [Example 197, cis-4-(2-(1-ethyl-3-methyl-1H-indazol-6-ylamino)-[1,2,4]triazolo[1,5-a]pyridin-5-ylamino)cyclohexanol] | 0.005 to 250 nM |  |  |
| Cc1n[nH]c2cc(Nc3nc4cccc(N[C@H]5CC[C@@H](O)CC5)n4n3)ccc12 [Example 351, cis-4-(2-(3-methyl-1H-indazol-6-ylamino)-[1,2,4]triazolo[1,5-a]pyridin-5-ylamino)cyclohexanol] |  | 0.005 to 250 nM |  |
| OC(c1cccc2nc(Nc3ccccc3)nn12)C1CCNCC1 (stereo not shown) [Example 502, (2-(phenylamino)-[1,2,4]triazolo[1,5-a]pyridin-5-yl)(piperidin-4-yl)methanol] |  |  | IC50 [2]: 250 to 500 nM |
| c1ccc(-c2cccc3nc(Nc4ccc5cnoc5c4)nn23)cc1 [compound 48, N-(5-phenyl-[1,2,4]triazolo[1,5-a]pyridin-2-yl)benzo[d]isoxazol-6-amine] | 1000 to 10000 nM |  |  |
| CNC(=O)c1ccc(Nc2nc3cccc(-c4cccnc4)n3n2)cc1 [Example 325, N-methyl-4-(5-(pyridin-3-yl)-[1,2,4]triazolo[1,5-a]pyridin-2-ylamino)benzamide] |  | 500 to 1000 nM |  |
| Cc1n[nH]c2cc(Nc3nc4cccc(NC[C@H]5CCC(O)C5)n4n3)ccc12 (stereo in doubt) [Example 180, (1R,3S)-3-((2-(3-methyl-1H-indazol-6-ylamino)-[1,2,4]triazolo[1,5-a]pyridin-5-ylamino)methyl)cyclopentanol] | 0.005 to 250 nM |  |  |
| OCC1CCCN1Cc1cccc2nc(Nc3ccc(C(F)(F)F)cc3)nn12 (stereo in doubt) [Example 272, (R)-(1-((2-(4-(trifluoromethyl)phenylamino)-[1,2,4]triazolo[1,5-a]pyridin-5-yl)methyl)pyrrolidin-2-yl)methanol] |  | 1000 to 10000 nM |  |
| CNC(=O)c1ccc(Nc2nc3cccc(CC4CCC(O)C4)n3n2)cc1 (single isomer, unassigned; diastereomer 1) [Example 232, 4-(5-((3-hydroxycyclopentyl)methyl)-[1,2,4]triazolo[1,5-a]pyridin-2-ylamino)-N-methylbenzamide (diastereomer 1)] |  | 1000 to 10000 nM |  |
| NC(=O)C1CCCN(Cc2cccc3nc(Nc4ccc(C(F)(F)F)cc4)nn23)C1 (stereo not shown) [Example 257, 1-((2-(4-(trifluoromethyl)phenylamino)-[1,2,4]triazolo[1,5-a]pyridin-5-yl)methyl)piperidine-3-carboxamide] |  | 1000 to 10000 nM |  |
| Nc1n[nH]c2cc(Nc3nc4cccc(CC5CCC(O)CC5)n4n3)ccc12 (stereo not shown) [Example 208, 4-((2-(3-amino-1H-indazol-6-ylamino)-[1,2,4]triazolo[1,5-a]pyridin-5-yl)methyl)cyclohexanol] |  | 0.005 to 250 nM |  |
| Cc1n[nH]c2ncc(Nc3nc4cccc(NC5CCOCC5)n4n3)cc12 [Example 539, N^2-(3-methyl-1H-pyrazolo[3,4-b]pyridin-5-yl)-N^5-(tetrahydro-2H-pyran-4-yl)-[1,2,4]triazolo[1,5-a]pyridin-2,5-diamine] |  |  | IC50 [2]: 1000 to 10000 nM |
| c1cc(N[C@@H]2CCCNC2)n2nc(Nc3ccc4cn[nH]c4c3)nc2c1 [Example 467, (R)-N^2-(1H-indazol-6-yl)-N^5-(piperidin-3-yl)-[1,2,4]triazolo[1,5-a]pyridin-2,5-diamine] |  |  | IC50 [2]: 0.005 to 250 nM |
| Fc1cccc(-c2cccc3nc(Nc4ccc5[nH]ncc5c4)nn23)c1 [compound 2, 5-(3-fluorophenyl)-N-(1H-indazol-5-yl)-[1,2,4]triazolo[1,5-a]pyridin-2-amine] | 0.005 to 250 nM |  |  |
| NCCCCc1cccc2nc(Nc3ccccc3)nn12 [Example 505, 5-(4-aminobutyl)-N-phenyl-[1,2,4]triazolo[1,5-a]pyridin-2-amine] |  |  | IC50 [2]: 500 to 1000 nM |
| O=C(NC1CCNCC1)c1ccc(Nc2nc3cccc(-c4ccccc4)n3n2)cc1 [compound 77, 4-(5-phenyl-[1,2,4]triazolo[1,5-a]pyridin-2-ylamino)-N-(piperidin-4-yl)benzamide] | 0.005 to 250 nM |  |  |
| Cc1nn(C)c2cc(Nc3nc4cccc(N[C@H]5CC[C@@H](O)CC5)n4n3)ccc12 [Example 218, cis-4-(2-(1,3-dimethyl-1H-indazol-6-ylamino)-[1,2,4]triazolo[1,5-a]pyridin-5-ylamino)cyclohexanol] |  | 0.005 to 250 nM |  |
| OC1CCN(Cc2cccc3nc(Nc4ccc(C(F)(F)F)cc4)nn23)C1 (stereo in doubt) [Example 335, (R)-1-((2-(4-(trifluoromethyl)phenylamino)-[1,2,4]triazolo[1,5-a]pyridin-5-yl)methyl)pyrrolidin-3-ol] |  | 1000 to 10000 nM |  |
| COC[C@]1(O)CC[C@@H](Cc2cccc3nc(Nc4ccc(C(F)(F)F)cc4)nn23)CC1 [Example 187, cis-1-(methoxymethyl)-4-((2-(4-(trifluoromethyl)phenylamino)-[1,2,4]triazolo[1,5-a]pyridin-5-yl)methyl)cyclohexanol] | 500 to 1000 nM |  |  |
| CNC(=O)c1ccc(Nc2nc3cccc(-c4cccc(CCN)c4)n3n2)cc1 [compound 11, 4-(5-(3-(2-aminoethyl)phenyl)-[1,2,4]triazolo[1,5-a]pyridin-2-ylamino)-N-methylbenzamide] | 250 to 500 nM |  |  |
